Source: patent US9110082B2, “Methods for the identification and treatment of patients sensitive to anti IGF-1R inhibition therapy” (MERCK SHARP & DOHME CORP., priority 2009, dated 2015)

Columns and labels:
Colo699 cell line = experiment: Anchorage independent growth (soft agar) assay, Colo699; type: cell-based, human; conditions: LKB1-high cell line; IGF-1 over-expression
Description: (§1) All NSCLC cell lines were obtained from ATCC and maintained in 10% fetal bovine serum, FBS (Hyclone) containing media (DMEM or RPMI; Invitrogen Inc) supplemented with pen-strep (Invitrogen) at 37° C. according to the instructions from ATCC.
(§2) Soft agar assays were conducted in 96 well glass bottom plates (MATRICAL). Cells were seeded at a concentration of 3,000-9,000 cells per WELL in 100 μl RPMI 1640 (INVITROGEN) supplemented with 14% FBS and 0.3% (w/v) […] Agarose (Lonza Rockland, Inc) on top of a bottom layer of consisting of the same culture media supplemented with 0.8% agarose. Compounds were added in 100μl of culture media supplemented after agarose had solidified. Cells were incubated for 7-14 days before staining overnight with LAVA CELL(Active Motif). Colonies were quantified using an ISOCYTE laser scanning cytometer.

[1] = tested on: xenograft models with low levels of IGF-1R expression (SKMES & NCI-H520); experiment: Xenograft growth assessment, NSCLC models with low IGF-1R; type: in vivo, nu/nu mice; conditions: SKMES & NCI-H520 xenografts
Description: (§3) When tumors reached a size of ˜300 mm3 (Length*Width*Width*0.5), mice were randomized into treatment groups. […] Tumor weight was determined at termination. […] Mice were sacrificed 24 hr after the final dose.

[2] = tested on: NSCLC cell lines expressing high levels of IGF-1R (NCI-H2122, A549, NCI-H460); experiment: Xenograft growth assessment, NSCLC models with high IGF-1R; type: in vivo, nu/nu mice; conditions: NCI-H2122, A549, NCI-H460 xenografts; as compared to erlotinib
Description: as §3

NSCLC cell lines = experiment: Anchorage independent growth (soft agar colony formation) assay in a panel of NSCLC cell lines; type: cell-based, human
Description: as §1
as §2, with “Compounds were added in 100μl of culture media supplemented after agarose had solidified.” left out

22 NSCLC cell lines = conditions: growth inhibition assay; cited from earlier work

Substance | sensitivity of Colo699 cell line (Colo699 cell line) | xenograft sensitivity [1] | xenograft sensitivity [2] | sensitivity (anchorage independent growth inhibition) of NSCLC cell lines expressing high levels of IGF-1R (NSCLC cell lines; 26 NSCLC cell lines, MK-0646 10 ug/ml, erlotinib 1 uM, IGF-1R high cell lines) | sensitivity in IGF-1R high cell lines expressing low levels of LKB1 (NSCLC cell lines; IGF-1R and LKB1 protein by RPPA) | MK-0646 sensitivity in LKB1-low cell lines (NSCLC cell lines; LKB1 protein not detectable by western blot (LKB1-low; n=11)) | sensitivity of NSCLC cell lines to R1507 (22 NSCLC cell lines)
MK-0646: humanized antibody characterized as binding IGF-1R as well as the IR/IGF-1 hybrid receptor; described in U.S. Pat. No. 7,241,444 | very sensitive | did not show sensitivity | significant sensitivity | more sensitive | enriched | significantly enriched | 
R1507: fully human IgG1 monoclonal antibody directed against the extracellular portion of the human IGF-1R |  |  |  |  |  |  | none of the lines displayed “high sensitivity”
